The values that follow come from patent publication US20210155644A1, “CYCLOPENTENYL PURINE DERIVATIVE OR SALT THEREOF” (Fujifilm Corporation, priority 2018, published 2021).

The test relates to adenovirus type 6 (ADV6). Briefly: Evaluation of anti-adenovirus activity: CRL-11516 cells infected with ADV6, anti-hexon staining, count of stained cells. Type of test: cell-based. Particulars: CRL-11516 cells infected with ADV6, 48 hours culture, concentration reducing dark brown-stained cells by 50%, read-out: Anti-AdV activity EC50. As for the experimental part:
A system in which CRL-11516 cells (available from ATCC) were infected with adenovirus type 6 (hereinafter, referred to as ADV6) was constructed, and a test for evaluating the anti-adenovirus activity of the compound according to the embodiment of the present invention and the compound of Comparative Example was carried out using the system. The test for evaluating the anti-adenovirus activity was carried out according to the method described below.
CRL-11516 cells were added to a 96-well plate at a cell density of 1×10^4 cells/well and cultured at 37° C. for 24 hours. After the culture was completed, the cell culture liquid was removed, and a serial dilution (100 μL) of the compound according to the embodiment of the present invention or the compound of Comparative Example was added. ADV6 (corresponding to 50TCID50) was added thereto, followed by culturing at 37° C. for 48 hours.
After the culture was completed, the infected cells were stained using Adeno-X Rapid Titer Kit (manufactured by Takara Bio Inc.). 100% methanol was added thereto and the cells were fixed at −20° C. for 10 minutes. The plate was washed three times with phosphate buffered saline (hereinafter, referred to as PBS) and then Mouse Anti-Hexon Antibody was added thereto, followed by incubation at 37° C. for 1 hour. After the incubation was completed, the plate was washed three times with PBS, and Rat Anti-Mouse Antibody was added thereto, followed by incubation at 37° C. for 1 hour. After the incubation was completed, a mixed staining solution of Stable Peroxidase Buffer:DAB Substrate=10:1 was added thereto, followed by incubation at room temperature for 10 minutes for staining of the cells.
The number of dark brown-stained cells was counted under a microscope, and the concentration of the test drug that reduces the dark brown-stained cells by 50% was defined as EC50. EC50 values were calculated for the triplicate test results, and a mean value and a standard deviation thereof were determined.

For orientation: EC50 means the concentration giving half of the maximal effect.

Where two headings read alike, the source gives them in different places.

Consider `COc1nc(N)nc2c1ncn2[C@H]1C=C[C@@H](COP(=O)(N[C@@H](C)C(=O)OC(C)C)Oc2ccccc2)C1` (stereo partly drawn) [Example 2-2-12, isopropyl ((((1S,4R)-4-(2-amino-6-methoxy-9H-purin-9-yl)cyclopent-2-en-1-yl)methoxy)(phenoxy)phosphoryl)-L-alaninate], for which the EC50 fell in the range of 100 to 1000 nM.

For `COC(=O)[C@H](C)NP(=O)(OC[C@@H]1C=C[C@H](n2cnc3c(OC)nc(N)nc32)C1)Oc1ccccc1` (stereo partly drawn) [Example 2-2-16, Methyl ((((1S,4R)-4-(2-amino-6-methoxy-9H-purin-9-yl)cyclopent-2-en-1-yl)methoxy) (phenoxy)phosphoryl)-L-alaninate], the concentration giving a half-maximal response (EC50) lay within 10 to 100 nM.

Regarding `CCOc1nc(N)nc2c1ncn2[C@H]1C=C[C@@H](CO[P@](=O)(N[C@@H](C)C(=O)OC(C)C)Oc2ccccc2)C1` [Example 2-2-17, isopropyl ((R)-(((1S,4R)-4-(2-amino-6-ethoxy-9H-purin-9-yl)cyclopent-2-en-1-yl)methoxy)(phenoxy)phosphoryl)-L-alaninate], under “Human mastadenovirus C, 48 h”, the EC50 was under 10 nM.

For `CCOc1nc(N)nc2c1ncn2[C@H]1C=C[C@@H](CO[P@@](=O)(N[C@@H](C)C(=O)OC(C)C)Oc2ccccc2)C1` [Example 2-2-18, Isopropyl ((S)-(((1S,4R)-4-(2-amino-6-ethoxy-9H-purin-9-yl)cyclopent-2-en-1-yl)methoxy) (phenoxy)phosphoryl)-L-alaninate], where the note is “Human mastadenovirus C, 48 h”, the EC50 was 100 to 1000 nM.

`CC(C)OC(=O)[C@H](C)N[P@@](=O)(OC[C@@H]1C=C[C@H](n2cnc3c(OC(C)C)nc(N)nc32)C1)Oc1ccccc1` [Example 2-2-19, isopropyl ((R)-(((1S,4R)-4-(2-amino-6-isopropoxy-9H-purin-9-yl)cyclopent-2-en-1-yl)methoxy)(phenoxy)phosphoryl)-L-alaninate]: for the setting “Human mastadenovirus C, 48 h”, the EC50 was in the range of 10 to 100 nM.

With `CC(C)OC(=O)[C@H](C)N[P@](=O)(OC[C@@H]1C=C[C@H](n2cnc3c(OC(C)C)nc(N)nc32)C1)Oc1ccccc1` [Example 2-2-20, Isopropyl ((S)-(((1S,4R)-4-(2-amino-6-isopropoxy-9H-purin-9-yl)cyclopent-2-en-1-yl)methoxy) (phenoxy)phosphoryl)-L-alaninate], for the setting “Human mastadenovirus C, 48 h”, the EC50 is 100 to 1000 nM.

For `COCCOc1nc(N)nc2c1ncn2[C@H]1C=C[C@@H](CO[P@](=O)(N[C@@H](C)C(=O)OC(C)C)Oc2ccccc2)C1` [Example 2-2-21, isopropyl ((R)-(((1S,4R)-4-(2-amino-6-(2-methoxyethoxy)-9H-purin-9-yl)cyclopent-2-en-1-yl)methoxy) (phenoxy)phosphoryl)-L-alaninate], under “Human mastadenovirus C, 48 h”, the EC50 fell in the range of 10 to 100 nM.

In the case of `CC(C)OC(=O)[C@H](C)N[P@@](=O)(OC[C@@H]1C=C[C@H](n2cnc3c(N(C)C)nc(N)nc32)C1)Oc1ccccc1` [Example 2-2-25, isopropyl ((R)-(((1S,4R)-4-(2-amino-6-(dimethylamino)-9H-purin-9-yl)cyclopent-2-en-1-yl)methoxy)(phenoxy)phosphoryl)-L-alaninate], the EC50 (Human mastadenovirus C, 48 h) fell in the range of 10 to 100 nM.

`CC(C)OC(=O)[C@H](C)N[P@](=O)(OC[C@@H]1C=C[C@H](n2cnc3c(N(C)C)nc(N)nc32)C1)Oc1ccccc1` [Example 2-2-26, Isopropyl ((S)-(((1S,4R)-4-(2-amino-6-(dimethylamino)-9H-purin-9-yl)cyclopent-2-en-1-yl)methoxy) (phenoxy)phosphoryl)-L-alaninate]: the EC50 (Human mastadenovirus C, 48 h) lay in the range of 100 to 1000 nM.

On to `CNc1nc(N)nc2c1ncn2[C@H]1C=C[C@@H](CO[P@](=O)(N[C@@H](C)C(=O)OC(C)C)Oc2ccccc2)C1` [Example 2-2-29], for which the EC50 lay in the range of 10 to 100 nM.

In the case of `CC(C)OC(=O)[C@H](C)N[P@@](=O)(OC[C@@H]1C=C[C@H](n2cnc3c(OC4CCC4)nc(N)nc32)C1)Oc1ccccc1` [Example 2-2-35, isopropyl ((R)-(((1S,4R)-4-(2-amino-6-cyclobutoxy-9H-purin-9-yl)cyclopent-2-en-1-yl)methoxy)(phenoxy)phosphoryl)-L-alaninate], the EC50 (Human mastadenovirus C, 48 h) was in the range of 10 to 100 nM.
